Results reported in patent US5554653A, “Inhibitors of HIV protease useful for the treatment of AIDS” (Eli Lilly and Company, priority 1992, dated 1996).
Converted amounts (≈) assume the structure as drawn.

Molecular target: T1, HIV-1 protease (Human immunodeficiency virus type 1 group M subtype B, UniProt P04585)
T1 construct: Purified HIV-1 protease was obtained as described above; made in house; host or cells: E. coli K12 L507/pHP10D (NRRL B-18560)
Assay: biochemical
Format: biochemical
Conditions: for IC50: read-out: Fluorescence Assay IC50 (converted); for IC3: read-out: Fluorescence Assay IC3
Protocol: C. Preparation of Protease Fraction
A culture of E. coli K12 L507/pHP10D was grown to mid-log phase at 32° C. in LB media containing 12.5 μg/ml tetracycline. The cultivation temperature was quickly elevated to 40° C. to induce gene expression, and the cells were allowed to grow for 2.5 hours at this temperature before the culture was quickly chilled on ice. The cells were centrifuged and the cell pellet was resuspended in 20 mL 50 mmol MES buffer (pH 6.0) containing 1 mmol EDTA, 1 mmol DTT, 1 mmol PMSF and 10% glycerol ("Buffer A"). Cells were lysed by sonication using a Fischer Model 300 Dismembrator and a microtip probe. Following centrifugation at 27,000×g, the supernatant was diluted to a total volume of 60 mL with Buffer A and loaded onto a 2.0×19 cm QAE-Sepharose column (1 mL/min, 4° C.), that had been equilibrated in Buffer A. The column was washed isocratically for 180 min and then eluted with a gradient eluent of 0-1.0M sodium chloride in Buffer A over 120 min. Enzymatic activity was measured by HPLC using the synthetic peptide SQNYPIV as described in Margolin et al., Biochem. Biophys. Res. Commun., 167, 554-560 (1990); the production of the p1 peptide (SQNY) was measured.
The active fractions were combined, made 1.2M in ammonium sulfate, and applied to a 2.0×18 cm hexyl agarose column that had been equilibrated in Buffer A containing 1.2M ammonium sulfate. The sample was loaded at a flow rate of 1 mL/min at 4° C., washed with the equilibration buffer for 240 min (1 mL/min) and then eluted using a reverse linear gradient of 1.2-0M ammonium sulfate in Buffer A for 120 min at the same flow rate. The column was then washed isocratically in Buffer A for 120 min.
The active fractions were combined, concentrated to 10 mL using an Amicon stirred cell with a YM-10 membrane and then applied to a MonoS cation exchange column (1.0×10 cm) that had been equilibrated in Buffer A. The sample was loaded at a flow rate of 1 mL/min at 25° C. After washing isocratically for 30 min, the protease was eluted using a linear gradient of 0-0.45M sodium chloride in Buffer A over 40 min. The column was washed isocratically in Buffer A containing 0.45M sodium chloride for 30 min.
The active fractions were combined and concentrated to 200 μL using an Amicon stirred cell and a YM-10 membrane and then the protease was applied to a Superose 6 size exclusion column equilibrated in Buffer A containing 0.1M sodium chloride.
The purified peptide was labeled with a fluorescent marker at the C-terminal end for use in the Pandex assay. N^α -Biotin-[…]OH SEQ ID NO:3. (1.206 g, 0.936 mmol) was dissolved in 100 mL of 0.1M sodium borate, pH 9.5. Then, a solution of 3 g (7.7 mmol) of fluorescein isothiocyanate in 15 mL dimethyl sulfoxide was added to the reaction mixture in 10 equal portions over two hours. The resulting mixture was allowed to react for one hour after the final addition. The solution was adjusted to pH 3 using 5N hydrochloric acid, resulting in the formation of a precipitate which was removed by centrifugation.
E. Fluorescence HIV-1 Protease Inhibitor Assay
The following buffers and solutions are used in the Fluorescence HIV-1 Protease Inhibitor Assay:
MES-ALB Buffer: 0.05M 4-morpholineethane
Avidin Coated 0.1% solution of Fluoricon
Beads Solution: Avidin Assay Particles
(Avidin conjugated to solid
polystyrene beads, 0.6-0.8
microns in diameter in TBSA
27 IU/mL of purified HIV-1
protease in MES-ALB buffer
(1 IU equals the amount of
enzyme required to hydrolyze
1 μmole of substrate per
To each well of a round bottom, 96-well plate is added 20 μL of the Enzyme Solution followed by 10 μL of the compound to be evaluated in a 20% aqueous dimethylsulfoxide solution. Purified HIV-1 protease was obtained as described above.

Row | SMILES | IC50 [nM] | other results
1 | CC(C)(C)NC(=O)c1ccccc1C[C@@H](O)[C@H](Cc1ccccc1)NC(=O)[C@@H](CSc1ccc2ccccc2c1)NS(C)(=O)=O [Example 17A, [2R-(2R*, 3S*, 6S*)]-N-t-Butyl-2-[2-hydroxy-3-phenylmethyl-4-aza-5-oxo-6-N (methylsulfonyl)amine-7-naphth-2-ylthio]heptyl benzamide] | 1.1 | 
2 | CC(C)(C)NC(=O)c1ccccc1C[C@@H](O)[C@H](Cc1ccccc1)NC(=O)[C@@H](CS(=O)(=O)c1ccc2ccccc2c1)NS(C)(=O)=O [Example 17B, [2R-(2R*,3S*,6S*)]-N-t-Butyl-2-[2-hydroxy-3-phenylmethyl-4-aza-5-oxo-6-N(methylsulfonyl)amino-7-naphth-2-ylsulfonyl]heptyl benzamide] | 0.191 | 
3 | CC(=O)N[C@H](CSCc1ccccc1)C(=O)N[C@@H](Cc1ccccc1)[C@H](O)Cc1ccccc1C(=O)NC(C)(C)C [Example 18A, [2R-(2R*, 3S*, 6S*)]-N-t-Butyl-2-[2-hydroxy-3-phenylmethyl-4-aza-5-oxo-6-N (ethanoyl)amino-7-benzylthio]heptyl benzamide] | 12.9 | 
4 | CC(=O)N[C@H](CS(=O)(=O)Cc1ccccc1)C(=O)N[C@@H](Cc1ccccc1)[C@H](O)Cc1ccccc1C(=O)NC(C)(C)C [Example 18B, [2R-(2R*, 3S*, 6S*)]-N-t-Butyl-2-[2-hydroxy-3-phenylmethyl-4-aza-5-oxo-6-N(ethanoyl)amino-7-benzylsulfonyl]heptyl benzamide] | 55.9 | 
5 | CC(C)(C)NC(=O)c1ccccc1C[C@@H](O)[C@H](Cc1ccccc1)NC(=O)[C@@H](CSCc1ccccc1)NC(=O)OC(C)(C)C [Example 19A, [2R-(2R*, 3S*, 6S*)]-N-t-Butyl-2-[2-hydroxy-3-phenylmethyl-4-aza-5-oxo-6-N (t-butoxycarbonyl)amino-7-benzylthio]heptyl benzamide] |  | IC3: 1 µg/mL
6 | CC(C)(C)NC(=O)c1ccccc1C[C@@H](O)[C@H](Cc1ccccc1)NC(=O)[C@H](N)CSCc1ccccc1 [Example 19B, [2R-(2R*, 3S*, 6S*)]-N-t-Butyl-2-[2-hydroxy-3-phenylmethyl-4-aza-5-oxo-6-amino-7-benzylthio]heptyl benzamide] |  | IC16 (read-out: Fluorescence Assay IC16): 1 µg/mL
7 | CC(C)(C)NC(=O)c1ccccc1C[C@@H](O)[C@H](Cc1ccccc1)NC(=O)[C@@H](CSCc1ccccc1)NS(C)(=O)=O [Example 19C, [2R-(2R*,3S*,6S*)]-N-t-Butyl-2-[2-hydroxy-3-phenylmethylyl-4-aza-5-oxo-6-N(methylsulfonyl)amino-7-benzylthio]heptyl benzamide] | 3.6 | 
8 | CC(C)(C)NC(=O)c1ccccc1C[C@@H](O)[C@H](Cc1ccccc1)NC(=O)[C@@H](C[S+]([O-])Cc1ccccc1)NS(C)(=O)=O (stereo partly drawn) [Example 19D, [2R-(2R*,3S*,6S*)]-N-t-Butyl-2-[2-hydroxy-3-phenylmethyl-4-aza-5-oxo-6-N(methylsulfonyl)amine-7-benzylsulfinyl]heptyl benzamide] | 2.23 | 
9 | CC(C)(C)NC(=O)c1ccccc1C[C@@H](O)[C@H](Cc1ccccc1)NC(=O)[C@@H](CS(=O)(=O)Cc1ccccc1)NS(C)(=O)=O [Example 19E, [2R-(2R*,3S*,6S*)]-N-t-Butyl-2-[2-hydroxy-3-phenylmethyl-4-aza-5-oxo-6-N(methylsulfonyl)amino-7-benzylsulfonyl]heptyl benzamide] | 4.66 | 
10 | CC(=O)N[C@@H](CSc1ccccc1)C(=O)N[C@@H](Cc1ccccc1)[C@H](O)Cc1ccccc1C(=O)NC(C)(C)C [Example 20B, [2R-(2R*,3S*,6R*)]-N-t-Butyl-2-[2-hydroxy-3-phenylmethyl-4-aza-5-oxo-6-N(ethanoyl)amino-7-phenylthio]heptyl benzamide] |  | IC8 (read-out: Fluorescence Assay IC8): 1 µg/mL
11 | CSCC[C@H](NC(C)=O)C(=O)N[C@@H](Cc1ccccc1)[C@H](O)Cc1ccccc1C(=O)NC(C)(C)C [Example 21, [2R-(2R*,3S*,6S*)]-N-t-Butyl-2-[2-hydroxy-3-phenylmethyl-4-aza-5-oxo-6-N(ethanoyl)amino-8-methylthio]octyl benzamide] |  | IC45 (read-out: Fluorescence Assay IC45): 1 µg/mL (≈ 1.95 µM)
12 | CC(C)(C)NC(=O)c1ccccc1C[C@@H](O)[C@H](Cc1ccccc1)NC(=O)[C@@H](CSc1ccccc1)NC(=O)OC(C)(C)C [Example 22A, [2R-(2R *,3S*,6S*)]-N-t-Butyl-2-[2-hydroxy-3-phenylmethyl-4-aza-5-oxo-6-N(t-butoxycarbonyl)amino-7-phenylthio]heptyl benzamide] |  | IC3: 2 µg/mL
13 | CC(C)(C)NC(=O)c1ccccc1C[C@@H](O)[C@H](Cc1ccccc1)NC(=O)[C@H](N)CSc1ccccc1 [Example 22B, [2R-(2R*,3S*,6S*)]-N-t-Butyl-2-[2-hydroxy-3-phenylmethyl-4-aza-5-oxo-6-amino-7-phenylthio]heptyl benzamide] |  | IC3: 1 µg/mL

Now from value to compound, other results behind:

Row | IC50 [nM] | SMILES | other results
14 | 4.88 | CC(=O)N[C@H](CS(=O)(=O)c1ccccc1)C(=O)N[C@@H](Cc1ccccc1)[C@H](O)Cc1ccccc1C(=O)NC(C)(C)C [Example 20C, [2R-(2R*,3S*,6S*)]-N-t-Butyl-2-[2-hydroxy-3-phenylmethyl-4-aza-5-oxo-6-N(ethanoyl)amino-7-phenylsulfonyl]heptyl benzamide] | 
15 | 18.9 | CC(C)(C)NC(=O)c1ccccc1C[C@@H](O)[C@H](Cc1ccccc1)NC(=O)[C@@H](CSc1ccccc1)NS(C)(=O)=O [Example 22C, [2R-(2R*,3S*,6S*)]-N-t-Butyl-2-[2-hydroxy-3-phenylmethyl-4-aza-5-oxo-6-N(methylsulfonyl)amino-7-phenylthio]heptyl benzamide] | 
16 | 2.54 | CC(C)(C)NC(=O)c1ccccc1C[C@@H](O)[C@H](Cc1ccccc1)NC(=O)[C@@H](CS(=O)(=O)c1ccccc1)NS(C)(=O)=O [Example 22D, [2R-(2R*,3S*,6S*)]-N-t-Butyl-2-[2-hydroxy-3-phenylmethyl-4-aza-5-oxo-6-N(methylsulfonyl)amino-7-phenylsulfonyl]heptyl benzamide] | 
17 | 0.978 | CC(C)(C)NC(=O)c1ccccc1C[C@@H](O)[C@H](Cc1ccccc1)NC(=O)[C@@H](C[S+]([O-])c1ccccc1)NS(C)(=O)=O (stereo partly drawn) [Example 22E, [2R-(2R*,3S*,6S*)]-N-t-Butyl-2-[2-hydroxy-3-phenylmethyl-4-aza-5-oxo-6-N(methylsulfonyl)amino-7-phenylsulfinyl]heptyl benzamide] | 
18 | 25.9 | CC(C)(C)NC(=O)c1ccccc1C[C@@H](O)[C@H](Cc1ccccc1)NC(=O)[C@@H](CSc1ccc2ccccc2n1)NS(C)(=O)=O [Example 23C, [2R-(2R*,3S*,6S*)]-N-t-Butyl-2-[2-hydroxy-3-phenylmethyl-4-aza-5-oxo-6-N(methylsulfonyl)amino-7-quinolin-2-ylthio]heptyl benzamide] | 
19 | 1.18 | CC(C)(C)NC(=O)c1ccccc1C[C@@H](O)[C@H](Cc1ccccc1)NC(=O)[C@@H](CS(=O)(=O)c1ccc2ccccc2n1)NS(C)(=O)=O [Example 23D, [2R-(2R*,3S*,6S*)]-N-t-Butyl-2-[2-hydroxy-3-phenylmethyl-4-aza-5-oxo-6-N(methylsulfonyl)amino-7-quinolin-2-ylsulfonyl]heptyl benzamide] | 
20 | 4.06 | CC(C)(C)NC(=O)c1ccccc1C[C@@H](O)[C@H](Cc1ccccc1)NC(=O)[C@@H](C[S+]([O-])c1ccc2ccccc2n1)NS(C)(=O)=O (stereo partly drawn) [Example 23E, [2R-(2R*,3S*,6S*)]-N-t-Butyl-2-[2-hydroxy-3-phenylmethyl-4-aza-5-oxo-6-N(methylsulfonyl)amino-7-quinolin-2-ylsulfinyl]heptyl benzamide] | 
